Assay results reported in PubChem BioAssay AID248 (DTP/NCI, 2004).
Inconclusive results and toxic doses are left out. Rule as the data show it: active = T/C of 150% or more; inactive = T/C below 125%.

Test system: L1210 leukemia ip in BDF1 mice, survival T/C
Assay: NCI In Vivo Anticancer Drug Screen. Data for tumor model L1210 Leukemia (intraperitoneal) in B6D2F1 (BDF1) mice
Conditions: higher = longer survival
Procedure, shortened: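 Transplantable tumor model; survival measured in treated vs vehicle control mice. Value = treated/control.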

[1] = endpoint: mean survival time, dose: 100.0 mg/kg/injection, schedule: Q04DX002 (ip), vehicle: saline
[2] = endpoint: mean survival time, dose: 200.0 mg/kg/injection, schedule: Q04DX002 (ip), vehicle: saline
[3] = endpoint: mean survival time, dose: 50.0 mg/kg/injection, schedule: Q01DX009 (ip), vehicle: saline
[4] = endpoint: mean survival time, dose: 100.0 mg/kg/injection, schedule: Q01DX009 (ip), vehicle: saline
[5] = endpoint: mean survival time, dose: 100.0 mg/kg/injection, schedule: Q01DX001 (ip), vehicle: saline
[6] = endpoint: mean survival time, dose: 400.0 mg/kg/injection, schedule: Q01DX001 (ip), vehicle: saline
[7] = endpoint: mean survival time, dose: 100.0 mg/kg/injection, schedule: Q01DX009 (ip), vehicle: Klucel (hydroxypropylcellulose) (HPC)
[8] = endpoint: mean survival time, dose: 200.0 mg/kg/injection, schedule: Q01DX009 (ip), vehicle: Klucel (hydroxypropylcellulose) (HPC)
[9] = endpoint: mean survival time, dose: 400.0 mg/kg/injection, schedule: Q01DX009 (ip), vehicle: Klucel (hydroxypropylcellulose) (HPC)
[10] = endpoint: mean survival time, dose: 200.0 mg/kg/injection, schedule: Q01DX009 (ip), vehicle: saline

Measured: T/C

OCC#CCO
inactive: endpoint: mean survival time, dose: 5.0 mg/kg/injection, schedule: Q01DX001 (ip), vehicle: carboxymethylcellulose (CMC) 95 % of control | endpoint: mean survival time, dose: 10.0 mg/kg/injection, schedule: Q01DX001 (ip), vehicle: carboxymethylcellulose (CMC) 104 % of control | endpoint: mean survival time, dose: 12.0 mg/kg/injection, schedule: Q04DX003 (ip), vehicle: saline 98 % of control | endpoint: mean survival time, dose: 20.0 mg/kg/injection, schedule: Q01DX001 (ip), vehicle: carboxymethylcellulose (CMC) 93 % of control | endpoint: mean survival time, dose: 25.0 mg/kg/injection, schedule: Q04DX003 (ip), vehicle: saline 104 % of control | endpoint: mean survival time, dose: 40.0 mg/kg/injection, schedule: Q01DX001 (ip), vehicle: carboxymethylcellulose (CMC) 106 % of control | endpoint: mean survival time, dose: 50.0 mg/kg/injection, schedule: Q01DX009 (ip), vehicle: other 105 % of control | endpoint: mean survival time, dose: 50.0 mg/kg/injection, schedule: Q04DX003 (ip), vehicle: saline 95 % of control | endpoint: mean survival time, dose: 80.0 mg/kg/injection, schedule: Q01DX001 (ip), vehicle: carboxymethylcellulose (CMC) 95 % of control

CCC(C)(O)C(=O)O (stereo not drawn)
inactive: [1] 114 % of control | [2] 114 % of control

C=CCSCC(=O)Cl
inactive: endpoint: mean survival time, dose: 25.0 mg/kg/injection, schedule: Q01DX009 (ip), vehicle: saline 102 % of control | [3] 100 % of control | [4] 110 % of control | [1] 95 % of control

FC(F)(F)C(F)(C1=NS1(F)C(F)(C(F)(F)F)C(F)(F)F)C(F)(F)F (stereo not drawn)
inactive: endpoint: mean survival time, dose: 100.0 mg/kg/injection, schedule: Q01DX001 (ip), vehicle: acetone 101 % of control | endpoint: mean survival time, dose: 200.0 mg/kg/injection, schedule: Q01DX001 (ip), vehicle: acetone 95 % of control | endpoint: mean survival time, dose: 400.0 mg/kg/injection, schedule: Q01DX001 (ip), vehicle: acetone 100 % of control

O=C(O)C[P+](c1ccccc1)(c1ccccc1)c1ccccc1
inactive: endpoint: mean survival time, dose: 50.0 mg/kg/injection, schedule: Q01DX001 (ip), vehicle: saline 106 % of control | [5] 112 % of control

C/C=C/C=C\COC(=O)C(C)(C)CCC
inactive: endpoint: mean survival time, dose: 100.0 mg/kg/injection, schedule: Q01DX009 (ip), vehicle: saline with Tween-80 90 % of control | endpoint: mean survival time, dose: 100.0 mg/kg/injection, schedule: Q04DX002 (ip), vehicle: saline with Tween-80 98 % of control | [1] 96 % of control | endpoint: mean survival time, dose: 200.0 mg/kg/injection, schedule: Q01DX009 (ip), vehicle: saline with Tween-80 90 % of control | endpoint: mean survival time, dose: 200.0 mg/kg/injection, schedule: Q04DX002 (ip), vehicle: saline with Tween-80 95 % of control | [2] 103 % of control | endpoint: mean survival time, dose: 400.0 mg/kg/injection, schedule: Q01DX009 (ip), vehicle: saline with Tween-80 93 % of control | endpoint: mean survival time, dose: 400.0 mg/kg/injection, schedule: Q04DX002 (ip), vehicle: saline with Tween-80 95 % of control | endpoint: mean survival time, dose: 800.0 mg/kg/injection, schedule: Q04DX002 (ip), vehicle: saline with Tween-80 95 % of control

CCOC(=O)NC(=S)Nc1ncn[nH]1
inactive: endpoint: mean survival time, dose: 100.0 mg/kg/injection, schedule: Q04DX003 (ip), vehicle: saline 96 % of control | endpoint: mean survival time, dose: 200.0 mg/kg/injection, schedule: Q04DX003 (ip), vehicle: saline 97 % of control | endpoint: mean survival time, dose: 400.0 mg/kg/injection, schedule: Q04DX003 (ip), vehicle: saline 103 % of control

O=C(O)C1C2C=Cc3ccccc3C21 (stereo not drawn)
inactive: [6] 90 % of control

CC1=C(C)C(=O)C(SC2CC(=O)OC2=O)=C(C)C1=O (stereo not drawn)
inactive: endpoint: mean survival time, dose: 100.0 mg/kg/injection, schedule: Q01DX001 (ip), vehicle: saline with Tween-80 88 % of control

Cc1ccc(/C=N/NC(=O)c2ccccc2NC(=O)c2ccccc2)cc1
inactive: [7] 105 % of control | [8] 97 % of control | [9] 95 % of control

CCN(Cc1ccccc1)C(=O)Nc1ccc(OC)cc1
inactive: [7] 103 % of control | [8] 97 % of control | [9] 106 % of control

O=C(O)Cn1c(=O)n(CC(=O)O)c2ccccc21
inactive: endpoint: mean survival time, dose: 100.0 mg/kg/injection, schedule: Q04DX003 (ip), vehicle: saline with Tween-80 93 % of control | endpoint: mean survival time, dose: 200.0 mg/kg/injection, schedule: Q04DX003 (ip), vehicle: saline with Tween-80 98 % of control | endpoint: mean survival time, dose: 400.0 mg/kg/injection, schedule: Q04DX003 (ip), vehicle: saline with Tween-80 98 % of control

CC(=O)CC(=O)C(F)(F)F.CC(=O)CC(=O)C(F)(F)F.CC(=O)CC(=O)C(F)(F)F.CC(=O)CC(=O)C(F)(F)F.[Th]
inactive: endpoint: mean survival time, dose: 100.0 mg/kg/injection, schedule: Q01DX005 (ip), vehicle: gum acacia 90 % of control | endpoint: mean survival time, dose: 100.0 mg/kg/injection, schedule: Q04DX002 (ip), vehicle: gum acacia 96 % of control | endpoint: mean survival time, dose: 200.0 mg/kg/injection, schedule: Q01DX005 (ip), vehicle: gum acacia 93 % of control | endpoint: mean survival time, dose: 200.0 mg/kg/injection, schedule: Q01DX009 (ip), vehicle: gum acacia 101 % of control | endpoint: mean survival time, dose: 200.0 mg/kg/injection, schedule: Q04DX002 (ip), vehicle: gum acacia 96 % of control | endpoint: mean survival time, dose: 400.0 mg/kg/injection, schedule: Q01DX005 (ip), vehicle: gum acacia 90 % of control | endpoint: mean survival time, dose: 400.0 mg/kg/injection, schedule: Q01DX009 (ip), vehicle: gum acacia 94 % of control | endpoint: mean survival time, dose: 400.0 mg/kg/injection, schedule: Q04DX002 (ip), vehicle: gum acacia 107 % of control

CO/N=C(\C)CSS(=O)(=O)OC
inactive: [1] 93 % of control | [2] 96 % of control | endpoint: mean survival time, dose: 400.0 mg/kg/injection, schedule: Q04DX002 (ip), vehicle: saline 86 % of control

N#C[C@H](OC1OC(COC2OC(CO)C(O)C(O)C2O)C(O)C(O)C1O)c1ccccc1 (stereo partly drawn)
inactive: [4] 102 % of control | [10] 101 % of control | endpoint: mean survival time, dose: 400.0 mg/kg/injection, schedule: Q01DX009 (ip), vehicle: saline 98 % of control | endpoint: median survival time, dose: 25.0 mg/kg/injection, schedule: Q01DX009 (ip), vehicle: water 101 % of control | endpoint: median survival time, dose: 25.0 mg/kg/injection, schedule: Q01DX Z (ip), vehicle: water 100 % of control | endpoint: median survival time, dose: 50.0 mg/kg/injection, schedule: Q01DX009 (ip), vehicle: water 92 % of control | endpoint: median survival time, dose: 50.0 mg/kg/injection, schedule: Q01DX Z (ip), vehicle: water 87 % of control | endpoint: median survival time, dose: 100.0 mg/kg/injection, schedule: Q01DX009 (ip), vehicle: water 51 % of control | endpoint: median survival time, dose: 200.0 mg/kg/injection, schedule: Q01DX009 (ip), vehicle: water 51 % of control | endpoint: median survival time, dose: 400.0 mg/kg/injection, schedule: Q01DX009 (ip), vehicle: water 93 % of control | endpoint: median survival time, dose: 400.0 mg/kg/injection, schedule: Q01DX Z (ip), vehicle: water 87 % of control

O=C(O)CCI
inactive: [3] 98 % of control | [4] 90 % of control | endpoint: mean survival time, dose: 100.0 mg/kg/injection, schedule: Q04DX003 (ip), vehicle: other 102 % of control | [10] 100 % of control | endpoint: mean survival time, dose: 200.0 mg/kg/injection, schedule: Q04DX003 (ip), vehicle: other 96 % of control

OCC1OC(CO)(c2ccccc2O)C(O)C1O (stereo not drawn) (tested in a mixture with another compound)
inactive: [5] 95 % of control | endpoint: mean survival time, dose: 200.0 mg/kg/injection, schedule: Q01DX001 (ip), vehicle: saline 97 % of control | [6] 92 % of control
